# “Also recorded” adds a separate entry of the source.
# How the values were obtained:
# [1] = tested on: androgen-independent prostate cancer; assay: Treatment of male patients with androgen-independent prostate cancer (Example 1); type: in vivo, human; settings: majority of patients treated
# Method: Three male patients were selected for treatment on the basis of established diagnosis with prostate cancer. All three patients had failed standard androgen withdrawal therapy. Average prostate-specific antigen (“PSA”) levels for each patient at the beginning of treatment was about 20-30 ng/ml. Hormone ablative therapy, in some cases aggressively administered as long as 36 months, had failed, manifested by a continued rise in PSA levels in each patient. […] Each patient continued to receive luteinizing hormone-releasing hormone (“LHRH”)-agonist therapy, despite tumor growth in its presence. This is considered standard therapy, as tumor growth is likely to be more aggressive if testosterone levels were allowed to return to normal in these patients.
# MSKPC9 tumor xenografts = assay: Growth of androgen independent MSKPC9 tumor xenografts; type: in vivo, nude athymic BALB/c male mice; settings: 40 mg/kg 5x/wk p.o., orchiectomized mice
# Method: Xenograft studies were performed as described in D. B. Agus et al., “Response of prostate cancer to anti-Her-2/neu antibody in androgen-dependent and -independent human xenograft models,” Cancer Res. 59(19):4761-4764 (1999). Orchiectomized seven- to eight-week-old nude athymic BALB/c male mice were obtained from the National Cancer Institute and maintained in pathogen-free conditions. Mice were inoculated subcutaneously (“s.c.”) with minced tumor tissue together with […] reconstituted basement membrane (available from BD Biosciences Discovery Labware; Bedford, Mass.) from the established androgen independent (“AI”) MSKPC9 xenograft cell lines; cell lines are described in M. Nagabhushan et al., “CWR22: the first human prostate cancer xenograft with strongly androgen-dependent and relapsed strains both in vivo and in soft agar,” Cancer Res. 56(13):3042-3046 (1996), and D. B. Agus et al., “Prostate cancer cell cycle regulators: response to androgen withdrawal and development of androgen independence,” J. Natl. Cancer Inst. 91(21):1869-76 (1999).
# Tumors were measured twice weekly with vernier calipers, and tumor volumes were calculated by the formula (π/6)×(larger diameter)×(smaller diameter)^2, described in M. F. Press et al., “HER-2/neu gene amplification characterized by fluorescence in situ hybridization: poor prognosis in node-negative breast carcinomas,” J. Clin Oncol. […]
# PSA = PSA levels in animals with MSKPC9 xenografts (enzymatic immunoassay); type: in vivo, nude athymic BALB/c male mice
# Method: Levels of PSA in the blood of implanted animals were determined using an enzymatic immunoassay kit (obtained from American Qualex; San Clemente, Calif.). Blood samples were obtained prior to treatment by a small incision in the dorsal tail vein to collect 50 μl of blood using a serum-separator tube, or via a cardiac draw at sacrifice.
# [2] = tested on: androgen-independent prostate cancer (AIPC); assay: Clinical study of raloxifene in androgen-independent prostate cancer: response and survival; type: in vivo, human
# Text: Between August 2001 and July 2002, twenty-one patients were enrolled into the study at the Prostate Cancer Center of Cedars-Sinai Medical Center in Los Angeles, Calif. Patients who were eligible for the study were men who had histologically confirmed adenocarcinoma of the prostate and confirmed disease progression after hormonal therapy. Patients were required to have progression of disease as evidenced by CT scan or rising PSA on two successive measurements after discontinuation of anti-androgen therapy. In addition, patients receiving androgen receptor-blocking agents as their last form of therapy had to have confirmed disease progression after drug withdrawal. Nonsurgically castrated patients continued to receive LHRH agonist while on study to maintain castrate levels of serum testosterone.
# Both patients with measurable disease by either bone scan or CT scan, and evaluable disease evidenced by rising PSA were included in the study. Patients whose only evidence of disease progression was rising PSA had to have an increasing PSA on any two determinations drawn at two least weeks apart, with a greater than 20% increase from the baseline value. Other eligibility criteria included: Karnofsky performance status >70%, life expectancy >12 weeks (with at least four weeks since major surgery or radiation therapy), and at least 12 weeks for treatment with strontium-89, rhenium, or samarium-153. […] Patients with a history of uncontrolled or severe cardiovascular disease (e.g., inadequately uncontrolled hypertension, congestive heart failure, angina, or myocardial infarction within the previous year), a history of thromboembolism, a history of biliary colic or untreated cholethiasis were excluded. Patients with brain metastasis, clinical signs of brain involvement or leptomeningeal disease, dementia, psychoses, or other significant impairment of mental status were excluded. Patients with a history of another malignancy during the past five years (other than non-melanomatous skin cancer or in situ stage T1a bladder cancer), patients with active infections requiring antibiotics, or patients on concurrent commercial or investigational antineoplastic therapies were excluded. No concomitant use of prostata or saw palmetto was permitted.
# Response to therapy was assessed after the first two months of therapy and then monthly thereafter. Toxicity was assessed monthly at each study visit. […] A partial response (“PR”) required a decrease by >50% of the sum of the products of the perpendicular diameters for all measurable lesions lasting at least one month, no appearance of new lesions, and a reduction in serum PSA by >50% on two consecutive occasions at least one month apart. For patients being evaluated by bone metastases, a PR required a reduction in serum PSA by >50% on two consecutive occasions at least one month apart an improvement in bone scan (reduction in intensity or size of one or more metastatic foci and no new foci of radionuclide uptake unless due to […] healing documented on plain radiograph, CT scan, or MRI scan). During this time there should have been no cancer-associated deterioration in weight, performance status, or symptoms. Progressive disease (“PD”) was defined by any of the following: (1) increase >25% in the sum of the products of the perpendicular diameters of bidimensionally measurable lesions in the sum of the transverse diameters of unidimensionally measurable lesions, (2) the appearance of new lesions, and (3) by the increase in serum PSA >50% over baseline as documented on two successive measurements >28 days apart. […] For PD to be scored by PSA criteria alone, a confirmatory PSA determination was required and obtained two weeks after the value representing a >50% increase. Patients who had improvement in one objective parameter while meeting the criteria for PD by another parameter were scored as having PD.
# Treatment was administered with monthly lab draws and follow-up visits with the physician. […]
smiles,measurement,setting,value
O=C(c1ccc(OCCN2CCCCC2)cc1)c1c(-c2ccc(O)cc2)sc2cc(O)ccc12 [raloxifene],"tumor stabilization (non-progression), leveling off of rising serum PSA",[1],tumor stabilization occurred
same,mean tumor volume vs control group (FIG. 1A),MSKPC9 tumor xenografts,reduction in mean tumor volume; also recorded: tumors were smaller
same,mean tumor weight vs control group (FIG. 1B),MSKPC9 tumor xenografts,reduction in mean tumor weight
same,PSA (per tumor volume) (FIG. 3),"PSA; MSKPC9 tumor xenografts, raloxifene treatment",increasing
same,levels of PSA in the blood of implanted animals (FIG. 3),PSA; MSKPC9 xenograft animals treated with raloxifene,rising PSA levels
same,improvement in soft tissue or bone disease,[2]; 60 mg oral daily,No improvement in soft tissue or bone disease was observed
same,median time to disease progression,[2]; 60 mg oral daily,8.3 weeks
same,patients with progressive disease at the first evaluation time point,[2]; 60 mg oral daily,thirteen of the eighteen
same,patients with stable disease at the first evaluation time point,[2]; 60 mg oral daily,five of eighteen
same,"time to disease progression, range",[2]; 60 mg oral daily,2.9-24.71 weeks
same,progression of soft tissue or osseous disease,"[2]; 60 mg oral daily, first evaluation time point",No progression of soft tissue or osseous disease was observed
same,patients alive,"[2]; as of July, 2003, 19 of 21",90%
same,median survival,"[2]; at time of analysis (November, 2002)",10.5 months
same,patients discontinued due to progressive disease (rising PSA) at the second evaluation point,[2]; of the five patients with stable disease,four
